Reference: US11141454B2, “Application of earthworm protein peptide in preparation of medicine for preventing and/or treating thrombotic disease” (Zhongshiduqing (Shandong) Biotech Co., Ltd., priority 2019, dated 2021)

System: carrageenan-induced rat tail thrombosis
Experiment: Carrageenan-induced rat tail thrombosis (black tail rate and length)
Format: in vivo, SD rats
Conditions: for Black tail rates of rats (%): Aspirin group 7.72 mg/kg intragastric
Protocol: The carrageenan was weighed and prepared into a carrageenan solution (2%) with a concentration of […] using 0.9% NaCl; rats were weighed and injected with carrageenan subcutaneously at a dose of 80 mg/kg; intragastric administration treatment was performed on a prevention group 5 days in advance; after model making for 30 min, intragastric administration treatment was performed on the remaining four groups other than the prevention group according to relevant doses, and then the rats were placed in a constant temperature environment of (18±2)° C., and free diet and water drinking were provided.
A total of 42 SD rats were randomly selected for thrombus model making by using carrageenan. The physiological activities of the rats were observed. The normal saline was used as a blank control group, and an aspirin group was used as a positive control group. A polypeptide (the earthworm protein peptide containing four anticoagulant active polypeptides, namely Leu-Val-Thr-Leu-Gly-Asn-Glu, Leu-Leu-Ala-Pro-Pro, Leu-Leu-Pro-Ala-Pro and Thr-Val-Ala-Pro-Phe prepared in Embodiment 1) and relevant medicines were dissolved with normal saline, and the intragastric administration dose was operated according to Table 2 below. […] After injection of carrageenan in each experimental group and normal saline group, rats with different degrees of blood stasis and black tail appeared 3 to 14 hours after model making, and gradually expanded to the tail root. The measured data was processed by spss18.0 software. In order to compare the differences between different groups, one-way analysis of variance was used. […] If P was smaller than 0.05, it indicated there was significant difference. […] The test results are shown in Table 3 and Table 4 below and in FIGS. 9 to 23.

CC(=O)Oc1ccccc1C(=O)O [Aspirin, aspirin]
Black tail rates of rats (%) (24 h): 0%
Black tail rates of rats (%) (36 h): 16.7%
Black tail rates of rats (%) (48 h): 16.7%
Black tail rates of rats (%) (56 h): 16.7%
Black tail rates of rats (%) (72 h): 50%
Black tail rates of rats (%) (96 h): 67%
black tail inhibition ratio compared with the normal saline group (aspirin group (7.72 mg/kg), after 48 hours, FIG. 9): 75.8%
length of tail thrombogenesis (black tail length) (aspirin group (7.72 mg/kg), after 48 hours, normal saline 100.13 mm): 24.24 mm
number of rats with obvious black tail signs (aspirin group, after 72 hours, FIG. 11): three
